This passage reports IC50 results from patent publication US6875743B1, “Cell adhesion inhibitors” (Biogen, Inc., priority 1996, dated 2005).

Numbered stars: 1 amine (or outer) side, 2 acyl side, 3 side chain; on linkers, the order of the positions; unused ones are H or OH. Square brackets hold non-standard residues; d marks the D form. Peptide text beside a SMILES is read from it. * marks the point of attachment. X4 = COc1nc(CC(=O)[*:2])ccc1N[*:1]; Quinaldoyl = O=C(c1ccc2ccccc2n1)*; X1 = O=C(Cc1ccc(N[*:1])cc1)[*:2]; NH(2-Me-phenyl) = Cc1ccccc1N*; Tic = O=C(O)[CH]1Cc2ccccc2CN1; Cha = N[CH](CC1CCCCC1)C(=O)O; Nle = CCCC[CH](N)C(=O)O; Nva = CCC[CH](N)C(=O)O; PhAc = O=C(Cc1ccccc1)*; CO = O=C([*:1])[*:2]; NHPh = c1ccc(N*)cc1

The target of this assay is T1, VLA4 (Homo sapiens, UniProt P05556+P13612).
T1 construct: endogenous in cells; host or cells: Ramos cells
Kind of assay: Inhibition of VLA4-dependent adhesion to BSA-CS1. The assay is classed as cell-based. Particulars: binding of BCECF-labelled Ramos cells to BSA-CS1 coated wells, 2 mM MnCl2; read-out: IC50. From the text:
For example, the cell adhesion inhibitory activity of these compounds may be measured by determining the concentration of inhibitor required to block the binding of VLA-4-expressing cells to fibronectin- or CS1-coated plates. In this assay microtiter wells are coated with either fibronectin (containing the CS-1 sequence) or CS-1. If CS-1 is used, it must be conjugated to a carrier protein, such as bovine serum albumin, in order to bind to the wells. Once the wells are coated, varying concentrations of the test compound are then added together with appropriately labelled, VLA-4-expressing cells. Alternatively, the test compound may be added first and allowed to incubate with the coated wells prior to the addition of the cells. The cells are allowed to incubate in the wells for at least 30 minutes. Following incubation, the wells are emptied and washed. Inhibition of binding is measured by quantitating the fluorescence or radioactivity bound to the plate for each of the various concentrations of test compound, as well as for controls containing no test compound.
VLA-4-expressing cells that may be utilized in this assay include Ramos cells, Jurkat cells, A375 melanoma cells, as well as human peripheral blood lymophocytes (PBLs). The cells used in this assay may be fluorescently or radioactively labelled.
This assay was used to assess the potency of VLA4-directed inhibitory compounds of this invention.
We dissolved BSA-SMCC (Pierce Chemical, Rockford, Ill.; Catalog #77115) in H2O at a concentration of 10 mg/mL. [SEQ ID NO:4]: […](“Cys-Tyr-CS1 peptide”), which we synthesized by conventional solid phase chemistry and purified by HPLC, was dissolved in 10 mM HEPES pH 5, 50 mM NaCl and 0.1 mM EDTA also at a concentration of 10 mg/mL. We then mixed 500 μL of BSA-SMCC, 250 μL of Cys-Tyr-CS1 peptide and 75 μL of 1 mM HEPES pH 7.5 and allowed the conjugation reaction to proceed for 30 minutes. We stopped the reaction by adding 1 μL of beta-mercaptoethanol. Samples were analyzed for cross-linking by SDS-PAGE.
We coated the wells of a Linbro titertek polystyrene 96-well flat bottom plate (Flow Laboratories, Maclean, Va.; catalog #76-231-05) with 100 μL of the above-described BSA-CS1 solution diluted to 1 μg/mL in 0.05 M NaHCO3 (15 mM NaHCO3, 35 mM Na2CO3) pH 9.2. Some wells were not coated with CS1 in order to assess non-specific cell binding (NSB). The plate was then incubated overnight at 4° C.
Following this incubation, the contents of the wells were removed by inverting and blotting the plate. All of the wells were then blocked with 100 μL of 1% BSA in PBS, 0.02% NaN3, for a minimum of one hour at room temperature.
Ramos cells are grown, maintained and labelled in RPMI 1640 culture medium containing 1% BSA. Just prior to running the assay, we added 2′,7′-bis-(2-carboxyethyl)-5 (and -6) carboxyfluorescein acetoxymethyl ester (“BCECF-AM”; Molecular Probes Inc., Eugene, Oreg.; catalog #B-1150) to a final concentration of 2 μM to a culture of Ramos cells (4×10^6 cells/mL). We incubated the cells for 20 minutes at 37° C.
Following labelling, the cells were washed twice in assay buffer (24 mM TRIS, 137 mM NaCl, 2.7 mM KCl, pH 7.4, containing 0.1% BSA and 2 mM glucose) to remove any cations originating from the culture medium. The cells were then resuspended in assay buffer to 4×10^6 cells/mL and 2 mM MnCl2 was added to upregulate VLA4 on the surface of the cells.
Immediately prior to running the assay, we removed the BSA blocking solution from the 96-well plates and washed the wells with 100 μL of assay buffer. We then added to each well 25 μL of test cell adhesion inhibitory compound at 2× the final concentration and 25 μL of the labelled Ramos cells. […] Each concentration of compound was tested in triplicate. The compound and cells are allowed to incubate for 30 minutes at room temperature.

T1 sequence (P13612 34-1032): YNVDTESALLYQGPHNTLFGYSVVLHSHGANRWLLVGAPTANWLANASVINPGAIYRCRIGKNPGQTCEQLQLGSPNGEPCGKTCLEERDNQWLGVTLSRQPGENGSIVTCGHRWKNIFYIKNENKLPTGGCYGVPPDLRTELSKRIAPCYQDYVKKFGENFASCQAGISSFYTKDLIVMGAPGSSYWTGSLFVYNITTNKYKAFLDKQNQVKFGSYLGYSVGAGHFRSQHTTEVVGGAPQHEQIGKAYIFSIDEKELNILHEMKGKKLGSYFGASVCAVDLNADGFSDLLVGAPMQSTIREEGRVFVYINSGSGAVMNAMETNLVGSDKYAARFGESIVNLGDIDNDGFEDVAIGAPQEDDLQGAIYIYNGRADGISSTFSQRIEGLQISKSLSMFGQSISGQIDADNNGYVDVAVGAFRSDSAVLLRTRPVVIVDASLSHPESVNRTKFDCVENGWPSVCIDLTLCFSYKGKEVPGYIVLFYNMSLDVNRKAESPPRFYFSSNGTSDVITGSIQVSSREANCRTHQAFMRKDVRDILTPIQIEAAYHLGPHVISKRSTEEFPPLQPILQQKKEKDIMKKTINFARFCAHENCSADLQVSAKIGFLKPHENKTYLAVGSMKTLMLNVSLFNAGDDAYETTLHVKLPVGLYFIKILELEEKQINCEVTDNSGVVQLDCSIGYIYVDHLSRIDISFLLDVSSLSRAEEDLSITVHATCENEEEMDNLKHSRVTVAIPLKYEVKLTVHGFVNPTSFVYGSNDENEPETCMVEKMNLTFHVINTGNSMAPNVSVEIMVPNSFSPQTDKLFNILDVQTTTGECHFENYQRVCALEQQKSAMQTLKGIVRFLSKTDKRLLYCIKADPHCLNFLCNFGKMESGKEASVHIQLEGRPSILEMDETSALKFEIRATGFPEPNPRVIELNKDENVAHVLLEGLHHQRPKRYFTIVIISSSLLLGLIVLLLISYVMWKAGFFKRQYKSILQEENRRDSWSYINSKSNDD
T1 sequence (P05556 21-798): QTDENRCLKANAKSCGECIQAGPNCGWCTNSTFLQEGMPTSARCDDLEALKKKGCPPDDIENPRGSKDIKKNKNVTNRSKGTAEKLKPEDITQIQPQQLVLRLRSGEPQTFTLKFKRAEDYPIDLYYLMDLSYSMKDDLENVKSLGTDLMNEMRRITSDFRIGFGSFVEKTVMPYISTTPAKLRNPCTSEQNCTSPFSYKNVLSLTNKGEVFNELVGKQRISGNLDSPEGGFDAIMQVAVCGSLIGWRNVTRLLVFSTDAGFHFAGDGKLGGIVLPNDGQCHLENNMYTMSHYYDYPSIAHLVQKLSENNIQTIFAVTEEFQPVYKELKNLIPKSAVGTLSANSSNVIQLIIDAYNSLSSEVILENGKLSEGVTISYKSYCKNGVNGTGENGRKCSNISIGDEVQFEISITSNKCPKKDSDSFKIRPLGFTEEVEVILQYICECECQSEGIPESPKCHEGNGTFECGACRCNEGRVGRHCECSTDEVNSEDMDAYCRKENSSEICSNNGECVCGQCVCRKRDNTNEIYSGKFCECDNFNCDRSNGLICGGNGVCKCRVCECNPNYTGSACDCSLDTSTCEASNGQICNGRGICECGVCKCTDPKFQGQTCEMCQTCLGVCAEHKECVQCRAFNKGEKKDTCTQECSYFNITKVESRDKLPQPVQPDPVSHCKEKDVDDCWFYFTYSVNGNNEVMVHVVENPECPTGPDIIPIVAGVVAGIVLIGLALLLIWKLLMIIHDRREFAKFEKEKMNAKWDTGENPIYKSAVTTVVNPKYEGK

As for `Cc1ccccc1NC(=O)Nc1ccc(CC(=O)N[C@@H](CC(C)C)C(=O)N[C@@H](CC(=O)O)C(=O)N[C@@H](CC(=O)O)C(N)=O)cc1` [Compound 230], the IC50 is less than 50 nM.

With `CC(C)C(NC(=O)C(CC(=O)O)NC(=O)C(CC1CCCCC1)NC(=O)c1cc2ccccc2cn1)C(=O)O` (stereo not shown) [Compound 85], the IC50 was greater than 10000 nM.

With `Cc1ccccc1NC(=O)Nc1ccc(CC(=O)N[C@@H](CC(C)C)C(=O)N[C@@H](CC(=O)O)C(=O)N[C@H](C(N)=O)[C@@H](C)O)cc1` [Compound 235], the IC50 is less than 50 nM.

Consider `CCC(C)C(NC(=O)CCc1ccc(O)cc1)C(=O)NC(CC(=O)O)C(=O)NCC(C)C` (stereo not shown) [Compound 17], for which the IC50 is greater than 10000 nM.

Regarding `Cc1ccccc1NC(=O)Nc1ccc(CC(=O)N[C@@H](CCC(N)=O)C(=O)N[C@@H](CC(=O)O)C(=O)N[C@H](CC(C)C)C(N)=O)cc1` [Compound 300], the IC50 is less than 50 nM.

Consider `CSCC[C@H](NC(=O)Cc1ccc(NC(=O)Nc2ccccc2C)cc1)C(=O)N[C@@H](CC(=O)O)C(=O)N[C@H](C(N)=O)[C@@H](C)O` [Compound 224], for which the IC50 was less than 50 nM.

Regarding `CC(C)C[C@H](NC(=O)c1coc2c1C(=O)CCC2)C(=O)N[C@@H](CC(=O)O)C(=O)N[C@H](C(=O)O)C(C)C` [Compound 371], the IC50 fell in the range of 50 to 10000 nM.

`Cc1ccccc1NC(=O)Nc1ccc(CC(=O)N[C@@H](CCC(N)=O)C(=O)N[C@@H](CC(=O)O)C(=O)N[C@H](C(N)=O)[C@@H](C)O)cc1` [Compound 302]: the IC50 was less than 50 nM.

With `Cc1ccccc1NC(=O)Nc1ccc(CC(=O)N[C@@H](CCC(=O)O)C(=O)N[C@@H](CC(=O)O)C(=O)N[C@H](CCC(=O)O)C(N)=O)cc1` [Compound 271], the concentration for half-maximal inhibition (IC50) was less than 50 nM.

With `CC(C)C[C@H](NC(=O)C1COc2ccc(Cl)cc2C1)C(=O)N[C@@H](CC(=O)O)C(=O)N[C@H](C(=O)O)C(C)C` (stereo partly shown) [Compound 386], the 50% inhibitory concentration (IC50) was greater than 10000 nM.

As to `CSCC[C@H](NC(=O)[C@H](CC(=O)O)NC(=O)[C@H](CC(C)C)NC(=O)Cc1ccc(NC(=O)Nc2ccccc2C)cc1)C(N)=O` [Compound 236], the 50% inhibitory concentration (IC50) was less than 50 nM.

For the compound `Cc1ccccc1NC(=O)Nc1ccc(CC(=O)N2CCC[C@H]2C(=O)N[C@@H](CC(=O)O)C(=O)N[C@H](CC(N)=O)C(N)=O)cc1` [Compound 248], the IC50 was less than 50 nM.

Consider `Cc1ccccc1NC(=O)Nc1ccc(CC(=O)N2CCC[C@H]2C(=O)N[C@@H](CC(=O)O)C(=O)N[C@H](CC(C)C)C(N)=O)cc1` [Compound 244], for which the IC50 was less than 50 nM.

For `Cc1ccccc1NC(=O)Nc1ccc(CC(=O)N2CCC[C@H]2C(=O)N[C@@H](CCC(=O)O)C(=O)O)cc1` [Compound 416], the IC50 lay in the range of 50 to 10000 nM.

Regarding `Cc1ccccc1NC(=O)Nc1ccc(CC(=O)N[C@@H](CO)C(=O)N[C@@H](CC(=O)O)C(=O)N[C@H](CC(N)=O)C(N)=O)cc1` [Compound 282], the IC50 is less than 50 nM.

As to `CC(C)C[C@H](NC(=O)Cc1ccc(NC(=O)Nc2ccccc2)cc1)C(=O)N[C@H](CC(=O)O)C(=O)N[C@H](C(=O)N1CCC[C@H]1C(N)=O)C(C)C` [Compound 210] ({NHPh-CO}-[X1]L[dD]VP-NH2), the IC50 is 50 to 10000 nM.

Regarding `Cc1ccccc1NC(=O)Nc1ccc(CC(=O)N2CCC[C@H]2C(=O)N[C@@H](CC(=O)O)C(=O)N[C@@H](CC(=O)O)C(N)=O)cc1` [Compound 241], the IC50 was less than 50 nM.

Turning to `CC(C)C[C@H](NC(=O)c1cncc(C#Cc2ccccc2)c1)C(=O)N[C@@H](CC(=O)O)C(=O)N[C@H](C(=O)O)C(C)C` [Compound 372], the concentration for half-maximal inhibition (IC50) is greater than 10000 nM.

Take `CCC(C)C(NC(=O)C(CC(=O)O)NC(=O)C(CC(C)C)NC(=O)C1CCc2ccccc2N1)C(=O)NC` (stereo not shown) [Compound 58]: the IC50 fell in the range of 50 to 10000 nM.

On to `CSCC[C@H](NC(=O)Cc1ccc(NC(=O)Nc2ccccc2C)cc1)C(=O)N[C@@H](CC(=O)O)C(=O)N[C@@H](CC(C)C)C(N)=O` [Compound 220], for which the concentration for half-maximal inhibition (IC50) is less than 50 nM.

For `Cc1ccccc1NC(=O)Nc1ccc(CC(=O)N2CCC[C@H]2C(=O)N[C@@H](CC(=O)O)C(=O)N[C@H](CC(C)C)C(=O)O)cc1` [Compound 411], the IC50 was less than 50 nM.

Regarding `CCCC(NC(=O)C(CC(=O)O)NC(=O)C(CC(C)C)NC(=O)c1ccc2ccccc2n1)C(=O)NC` (stereo not shown) [Compound 52], the IC50 was greater than 10000 nM.

As to `CSCC[C@H](NC(=O)[C@H](CC(=O)O)NC(=O)[C@H](CO)NC(=O)Cc1ccc(NC(=O)Nc2ccccc2C)cc1)C(N)=O` [Compound 281], the IC50 is less than 50 nM.

For `Cc1ccccc1NC(=O)Nc1ccc(CC(=O)N2CCC[C@H]2C(=O)N[C@@H](CCC(=O)O)C(=O)N[C@H](CC(C)C)C(=O)O)cc1` [Compound 415], the IC50 lay within 50 to 10000 nM.

For `CC(C)C(NC(=O)C(CC(=O)O)NC(=O)C(CC1CCCCC1)NC(=O)C1Cc2ccccc2CN1)C(=O)O` (stereo not shown) [Compound 86] (H-[Tic][Cha]DV-OH; configuration not given here), the IC50 was greater than 10000 nM.

Consider `CSCC[C@H](NC(=O)Cc1ccc(NC(=O)Nc2ccccc2C)cc1)C(=O)N[C@@H](CCC(=O)O)C(=O)N[C@H](C(N)=O)C(C)C` [Compound 309], for which the IC50 is less than 50 nM.

On to `CC(C)CC(NC(=O)CCc1ccccc1)C(=O)NC(CC(=O)O)C(=O)NCC1CCCCC1` (stereo not shown) [Compound 24], for which the IC50 was greater than 10000 nM.

Turning to `CC(C)CC(NC(=O)C1Cc2ccccc2CN1)C(=O)NC(CC(=O)O)C(=O)O` (stereo not drawn) [Compound 23] (H-[Tic]-Leu-Asp-OH; configuration not given here), the IC50 was greater than 10000 nM.

Regarding `CC(C)C[C@H](NC(=O)c1ccc2ccccc2n1)C(=O)N[C@@H](CC(=O)O)C(=O)N[C@H](C(N)=O)C(C)C` [Compound 178], the IC50 was greater than 10000 nM.

In the case of `CCCCC(NC(=O)C(NC(=O)C(CC(=O)O)NC(=O)C(CC(C)C)NC(=O)c1ccc2ccccc2n1)C(C)C)C(=O)O` (stereo not shown) [Compound 44] (Quinaldoyl-LDV[Nle]-OH; configuration not given here), the IC50 lay within 50 to 10000 nM.

With `Cc1ccccc1NC(=O)Nc1ccc(CC(=O)N[C@@H](CC(C)C)C(=O)N[C@@H](CC(=O)O)C(=O)N[C@H](CCC(=O)O)C(N)=O)cc1` [Compound 238], the IC50 is less than 50 nM.

Take `CNC(=O)C(C)(C)NC(=O)[C@H](CC(=O)O)NC(=O)[C@H](CC(C)C)NC(=O)c1ccc2ccccc2n1` [Compound 185]: the IC50 is greater than 10000 nM.

In the case of `COc1nc(CC(=O)N[C@@H](CC(C)C)C(=O)N[C@@H](CC(=O)O)C(=O)N[C@H](C(=O)N2CCC[C@H]2C(=O)O)C(C)C)ccc1NC(=O)Nc1ccccc1C` [Compound 4] ({NH(2-Me-phenyl)-CO}-[X4]LDVP-OH), the IC50 was less than 50 nM.

Regarding `CCCC(NC(=O)C(CC(=O)O)NC(=O)C(CC(C)C)NC(=O)Cc1ccccc1)C(=O)NC` (stereo not drawn) [Compound 51] (PhAc-Leu-Asp-[Nva]-NHMe; configuration not given here), the IC50 was greater than 10000 nM.

Consider `Cc1ccccc1NC(=O)Nc1ccc(CC(=O)N[C@@H](CO)C(=O)N[C@@H](CC(=O)O)C(=O)N[C@H](CC(C)C)C(N)=O)cc1` [Compound 278], for which the concentration for half-maximal inhibition (IC50) was less than 50 nM.

For the compound `CCC(C)C(NC(=O)C(CC(=O)O)NC(=O)C(CC(C)C)NC(=O)Cc1ccccc1)C(=O)OC` (stereo not drawn) [Compound 54] (PhAc-Leu-Asp-Ile-OMe; configuration not given here), the IC50 was greater than 10000 nM.

Turning to `Cc1ccccc1NC(=O)Nc1ccc(CC(=O)N[C@@H](CC(C)C)C(=O)N[C@@H](CC(=O)O)C(=O)N[C@H](C(N)=O)C(C)C)cc1` [Compound 232], the IC50 was less than 50 nM.
